Data taken from the supplement of paper PMC10307832.

Tests used:
Assay in all cases: relative viability (nuclei count vs DMSO), 5 days (fraction); higher = more cells survive
LK-2 = tested on: LK-2
Procedure, shortened: (§1)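 For relative viability, nuclei counts in treated wells were divided by those in vehicle wells. Lung cancer cell lines had been pin-tool dosed in 1536-well plates the day after seeding and cultured for 5 days, then fixed and stained in one step (final 0.05% Triton X-100, 1% formaldehyde, 1 ug/ml Hoechst) and imaged at 4×. Doses were one drug alone or a fixed anchor-drug dose plus five library-drug doses (not always all listed) in √10 steps, and values are duplicate-plate medians.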

ABC-1 = tested on: ABC-1
Procedure, shortened: as §1

NCI-H460 = tested on: NCI-H460
Procedure, shortened: as §1

NCI-H322M = tested on: NCI-H322M
Procedure, shortened: as §1

NCI-H727 = tested on: NCI-H727
Procedure, shortened: as §1

NCI-H2023 = tested on: NCI-H2023
Procedure, shortened: as §1

NCI-H1651 = tested on: NCI-H1651
Procedure, shortened: as §1

EKVX = tested on: EKVX
Procedure, shortened: as §1

NCI-H838 = tested on: NCI-H838
Procedure, shortened: as §1

LU99A = tested on: LU99A
Procedure, shortened: as §1

BEN = tested on: BEN
Procedure, shortened: as §1

NCI-H358 = tested on: NCI-H358
Procedure, shortened: as §1

HCC-15 = tested on: HCC-15
Procedure, shortened: as §1

COR-L 105 = tested on: COR-L 105
Procedure, shortened: as §1

201T = tested on: 201T
Procedure, shortened: as §1

NCI-H1563 = tested on: NCI-H1563
Procedure, shortened: as §1

PC-3 [JPC-3] = tested on: PC-3 [JPC-3]
Procedure, shortened: as §1

SW 900 = tested on: SW 900
Procedure, shortened: as §1

EMC-BAC-2 = tested on: EMC-BAC-2
Procedure, shortened: as §1

CAL-12T = tested on: CAL-12T
Procedure, shortened: as §1

NCI-H520 = tested on: NCI-H520
Procedure, shortened: as §1

CN1CCN(CCOc2cc(OC3CCOCC3)c3c(Nc4c(Cl)ccc5c4OCO5)ncnc3c2)CC1 [Saracatinib] + COc1cc2c(Oc3ccc(NC(=O)C4(C(=O)Nc5ccc(F)cc5)CC4)cc3F)ccnc2cc1OCCCN1CCOCC1 [Foretinib] (partner 0.25 µM)
relative viability (LK-2; first compound 0.02 µM): 0.997 | relative viability (LK-2; first compound 0.2 µM): 1.09 | relative viability (LK-2; first compound 0.6325 µM): 1.41 | relative viability (LK-2; first compound 2 µM): 0.537 | relative viability (ABC-1; first compound 0.02 µM): 1.08 | relative viability (ABC-1; first compound 0.2 µM): 0.975 | relative viability (ABC-1; first compound 0.6325 µM): 0.998 | relative viability (ABC-1; first compound 2 µM): 1.01 | relative viability (NCI-H460; first compound 0.02 µM): 1.02 | relative viability (NCI-H460; first compound 0.2 µM): 0.882 | relative viability (NCI-H460; first compound 0.6325 µM): 1.06 | relative viability (NCI-H460; first compound 2 µM): 0.867 | relative viability (NCI-H322M; first compound 0.02 µM): 1.01 | relative viability (NCI-H322M; first compound 0.2 µM): 0.921 | relative viability (NCI-H322M; first compound 0.6325 µM): 0.826 | relative viability (NCI-H322M; first compound 2 µM): 0.403 | relative viability (NCI-H727; first compound 0.02 µM): 0.814 | relative viability (NCI-H727; first compound 0.2 µM): 1.04 | relative viability (NCI-H727; first compound 0.6325 µM): 0.923 | relative viability (NCI-H727; first compound 2 µM): 0.553 | relative viability (NCI-H2023; first compound 0.02 µM): 0.953 | relative viability (NCI-H2023; first compound 0.2 µM): 0.873 | relative viability (NCI-H2023; first compound 0.6325 µM): 0.656 | relative viability (NCI-H2023; first compound 2 µM): 0.531 | relative viability (NCI-H1651; first compound 0.02 µM): 0.844 | relative viability (NCI-H1651; first compound 0.2 µM): 0.561 | relative viability (NCI-H1651; first compound 0.6325 µM): 0.908 | relative viability (NCI-H1651; first compound 2 µM): 0.657 | relative viability (EKVX; first compound 0.02 µM): 0.866 | relative viability (EKVX; first compound 0.6325 µM): 0.268 | relative viability (EKVX; first compound 2 µM): 0.401 | relative viability (NCI-H838; first compound 0.02 µM): 1.05 | relative viability (NCI-H838; first compound 0.2 µM): 0.908 | relative viability (NCI-H838; first compound 0.6325 µM): 0.938 | relative viability (NCI-H838; first compound 2 µM): 0.916 | relative viability (LU99A; first compound 0.02 µM): 0.811 | relative viability (LU99A; first compound 0.2 µM): 0.562 | relative viability (LU99A; first compound 0.6325 µM): 0.831 | relative viability (LU99A; first compound 2 µM): 0.536 | relative viability (BEN; first compound 0.02 µM): 0.753 | relative viability (BEN; first compound 0.6325 µM): 0.707 | relative viability (BEN; first compound 2 µM): 0.476 | relative viability (NCI-H358; first compound 0.02 µM): 0.761 | relative viability (NCI-H358; first compound 0.2 µM): 0.534 | relative viability (NCI-H358; first compound 0.6325 µM): 0.421 | relative viability (NCI-H358; first compound 2 µM): 0.213 | relative viability (HCC-15; first compound 0.02 µM): 1.14 | relative viability (HCC-15; first compound 0.2 µM): 0.975 | relative viability (HCC-15; first compound 0.6325 µM): 1.12 | relative viability (HCC-15; first compound 2 µM): 1.05 | relative viability (COR-L 105; first compound 0.02 µM): 0.973 | relative viability (COR-L 105; first compound 0.2 µM): 1.04 | relative viability (COR-L 105; first compound 0.6325 µM): 1.09 | relative viability (COR-L 105; first compound 2 µM): 0.816 | relative viability (201T; first compound 0.02 µM): 1.16 | relative viability (201T; first compound 0.2 µM): 0.752 | relative viability (201T; first compound 0.6325 µM): 1 | relative viability (201T; first compound 2 µM): 0.693 | relative viability (NCI-H1563; first compound 0.02 µM): 0.924 | relative viability (NCI-H1563; first compound 0.2 µM): 0.782 | relative viability (NCI-H1563; first compound 0.6325 µM): 0.76 | relative viability (NCI-H1563; first compound 2 µM): 0.649 | relative viability (PC-3 [JPC-3]; first compound 0.02 µM): 1.04 | relative viability (PC-3 [JPC-3]; first compound 0.2 µM): 0.889 | relative viability (PC-3 [JPC-3]; first compound 0.6325 µM): 0.693 | relative viability (PC-3 [JPC-3]; first compound 2 µM): 0.396 | relative viability (SW 900; first compound 0.02 µM): 0.78 | relative viability (SW 900; first compound 0.2 µM): 0.737 | relative viability (SW 900; first compound 0.6325 µM): 0.919 | relative viability (SW 900; first compound 2 µM): 0.776 | relative viability (EMC-BAC-2; first compound 0.02 µM): 1.01 | relative viability (EMC-BAC-2; first compound 0.2 µM): 0.8 | relative viability (EMC-BAC-2; first compound 0.6325 µM): 1.01 | relative viability (EMC-BAC-2; first compound 2 µM): 0.704 | relative viability (CAL-12T; first compound 0.02 µM): 1.12 | relative viability (CAL-12T; first compound 0.2 µM): 1.02 | relative viability (CAL-12T; first compound 0.6325 µM): 1.33 | relative viability (CAL-12T; first compound 2 µM): 1.18 | relative viability (NCI-H520; first compound 0.02 µM): 0.761 | relative viability (NCI-H520; first compound 0.6325 µM): 0.611 | relative viability (NCI-H520; first compound 2 µM): 0.523
